Data taken from patent US20250214964A1, “COMPOUNDS DERIVED FROM 4-AMINO-N-(4-AMINOPHENYL) BENZAMIDE AND ANALOGUES AND USE THEREOF” (priority 2022, published 2025).
Blank lines part the entries; values can stand above or below the compound they belong to.

Columns and labels:
[1] = test system: T. b. brucei drug-resistant strain B48; type: cell-based; settings: for RF resistance factor (EC50 T. b. B48/EC50 T. b. s427): value in parentheses
[2] = Cytotoxicity on L929 cells; type: cell-based; settings: mouse
[3] = test system: epimastigotes of T. cruzi (CL strain lacZ); assay: microbe, parasite or virus in culture; type: cell-based; settings: Trypanosoma cruzi
[4] = Cytotoxicity on THP-1 cells; settings: human
Method: (§1) Furthermore, their cytotoxicity on human THP-1 cells was evaluated and the selectivity index (SI) of each compound was calculated (Table 1).

[5] = Microsomal stability, human liver microsomes, phase I; settings: reaction time up to 120 min
[6] = Microsomal stability, mouse liver microsomes; settings: reaction time up to 120 min
[7] = test system: intracellular amastigotes of L. donovani (strain MHOM/ET/67/HU3); assay: L. donovani intracellular amastigotes in THP-1-derived macrophages, resazurin method; type: cell-based; settings: for SI selectivity index (EC50 THP-1/EC50 parasite (amastigote form)): THP-1 vs L. donovani amastigotes
Method: as §1

[8] = test system: T. b. brucei wild strain s427; assay: T. b. brucei s427 bloodstream trypomastigotes, Alamar blue; type: cell-based
HEK cells = assay: Cytotoxicity on HEK cells; settings: read-out: CC50 HEK; concentration that causes 50% cell death

SMILES: N=C(N)c1ccc(/N=N/Nc2ccc(C(=N)N)cc2)cc1 [dimin., Diminazene]
RF resistance factor (EC50 T. b. B48/EC50 T. b. s427) [1]: (13.1)

SMILES: O=C(Cn1ccnc1[N+](=O)[O-])NCc1ccccc1 [benzn, benznidazole]
EC50 at 72 h [2]: > 200 µM | EC50 [3]: 25.3 ± 2.1 µM

SMILES: N=C(Nc1ccc(CCc2ccc(NC(=N)c3ccccn3)cc2)cc1)c1ccccn1 [Compound 17, N,N″-(ethane-1,2-diylbis(4,1-phenylene))dipicolinimidamide]
EC50 at 72 h [2]: > 200 µM | EC50 [4]: > 50 µM

SMILES: N=C(N)c1ccc(OCCCCCOc2ccc(C(=N)N)cc2)cc1 [pent., Pentamidine]
RF resistance factor (EC50 T. b. B48/EC50 T. b. s427) [1]: (168)

metabolism by mouse liver microsomes (CD-1), in words [6]: slowly metabolised
SMILES: O=C(O)Cc1ccccc1Nc1c(Cl)cccc1Cl [diclofenac]
metabolism by human liver microsomes, in words [5]: rapidly metabolised (high intrinsic clearance)

SMILES: CCCCCCCCCCCCCCCCOP(=O)([O-])OCC[N+](C)(C)C [MIL, Miltefosine]
SI selectivity index (EC50 THP-1/EC50 parasite (amastigote form)) [7]: 28.8

SMILES: C[C@@H]1[C@H](O)[C@@H](C)/C=C/C=C/C=C/C=C/C=C/C=C/C=C/[C@H](O[C@@H]2O[C@H](C)[C@@H](O)[C@H](N)[C@@H]2O)C[C@@H]2O[C@](O)(C[C@@H](O)C[C@@H](O)[C@H](O)CC[C@@H](O)C[C@@H](O)CC(=O)O[C@H]1C)C[C@H](O)[C@H]2C(=O)O [AmB, Amphotericin B]
SI selectivity index (EC50 THP-1/EC50 parasite (amastigote form)) [7]: 116.0

EC50 ([7]; Leishmania donovani, Macrophage, read-out: EC50 L. donovani intracellular amastigotes): > 10 µM
SMILES: c1ccc2[nH]c(=Nc3ccc(CCc4ccc(N=c5[nH]c6ccccc6[nH]5)cc4)cc3)[nH]c2c1 [Compound 13, 4,4′-(ethane-1,2-diyl)bis(N-(1H-benzo[d]imidazol-2(3H)-ylidene)aniline)]

SMILES: O=C(Nc1ccc(N=c2[nH]c3ccccc3[nH]2)c(Cl)c1)c1ccc(N=c2[nH]c3ccccc3[nH]2)cc1Cl [Compound 1f, 4-((1H-benzo[d]imidazol-2(3H)-ylidene)amino)-N-(4-((1H-benzo[d]imidazol-2(3H)-ylidene)amino)-3-chlorophenyl)-2-clorobenzamide]
EC50 ([1]; strain B48 resistant to pentamidine and diminazene): 2.93 ± 0.17 µM | RF resistance factor (EC50 T. b. B48/EC50 T. b. s427) [1]: (1.11) | SI ([8]; HEK vs T. brucei): 3.9 | EC50 ([8]; strain s427 of T. b. brucei): 2.64 ± 0.09 µM | CC50 (HEK cells): 10.2 ± 0.3 µM
